Measured values reported in US5436254A, “Carbostyril derivatives” (Otsuka Pharmaceutical Company, Ltd., priority 1989, dated 1995).
pIC50: −log10 of the molar value.

Biological target: V1 receptor (Rattus norvegicus, UniProt P30560)
Test: biochemical
Type: binding
Settings: not given

Chain of V1 receptor (P30560 whole entry): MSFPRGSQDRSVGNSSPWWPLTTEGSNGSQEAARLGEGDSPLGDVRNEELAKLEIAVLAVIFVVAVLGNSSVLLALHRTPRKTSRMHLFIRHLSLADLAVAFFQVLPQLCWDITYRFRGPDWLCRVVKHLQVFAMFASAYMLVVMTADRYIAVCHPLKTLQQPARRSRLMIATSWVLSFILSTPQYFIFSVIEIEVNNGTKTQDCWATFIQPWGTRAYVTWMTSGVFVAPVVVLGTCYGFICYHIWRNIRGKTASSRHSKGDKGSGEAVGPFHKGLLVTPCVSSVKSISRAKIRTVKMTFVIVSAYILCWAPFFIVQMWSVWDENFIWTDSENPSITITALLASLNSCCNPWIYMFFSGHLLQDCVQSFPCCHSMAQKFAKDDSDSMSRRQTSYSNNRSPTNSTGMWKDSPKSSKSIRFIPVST

SMILES | pIC50
O=C(c1ccc(OCCCNCc2ccccc2)cc1)N1CCC(N2C(=O)CCc3ccccc32)CC1 [Example 18, 1-{1-[4-(3-Benzylaminopropoxy)benzoyl]-4-piperidinyl}-3,4-dihydrocarbostyril] | 6.57
Nc1ccc(C(=O)NCCCOc2ccc(C(=O)N3CCC(N4C(=O)CCc5ccccc54)CC3)cc2)cc1 [Example 193, 1-{1-[4-(3-(4-Aminobenzoylamino)propoxy)benzoyl]-4-piperidinyl}-3,4-dihydrocarbostyril] | 6.92
NC(=O)[C@@H]1CCCN1CC(O)CCCCOc1ccc(C(=O)N2CCC(N3C(=O)CCc4ccccc43)CC2)cc1 (stereo partly drawn) [Example 302] | 7.06
CNC(=O)CNc1cc(OC)ccc1C(=O)N1CCC(N2C(=O)CCc3ccccc32)CC1 [Example 105, 1-[1-(4-Methoxy-2-methylaminocarbonylmethylamino)-4-piperidinyl]-3,4-dihydrocarbostyril] | 5.92
NC(=O)CCCCOc1ccc(C(=O)N2CCC(N3C(=O)CCc4ccccc43)CC2)cc1 [Example 3, 1-{1-[4-(4-Carbamoylbutoxy)benzoyl]-4-piperidinyl}-3,4-dihydrocarbostyril] | 6.48
O=C(c1ccc(OCCCCCSc2ncccn2)cc1)N1CCC(N2C(=O)CCc3ccccc32)CC1 [Example 279, 1-{1-(4-[5-(2-Pyrimidylthio)pentyloxy]benzoyl)-4-piperidinyl}-3,4-dihydrocarbostyril] | 6.74
NC(=O)[C@H](Cc1c[nH]cn1)NC(=O)CCCCCOc1ccc(C(=O)N2CCC(N3C(=O)CCc4ccccc43)CC2)cc1 [Example 149, 1-{1-[4-{5-[1-(S)-Carbamoyl-2{4(1H)-imidazoyl}]ethylaminocarbonylpentyloxy)benzoyl]-4-piperidinyl}-3,4-dihydrocarbostyril] | 6.82
CCN(CC)CCCCCCOc1ccc(C(=O)N2CCC(N3C(=O)CCc4c(C)cccc43)CC2)cc1 [Example 307, 5-Methyl-1-{1-[4-(6-diethylaminohexyloxy)benzoyl]-4-piperidinyl}-3,4-dihydrocarbostyril] | 7.64
Nc1ccc(C(=O)NCCCCCOc2ccc(C(=O)N3CCC(N4C(=O)CCc5ccccc54)CC3)cc2)cc1 [Example 262, 1-{1-(4-[5-(4-Aminobenzoyl)aminopentyloxy]benzoyl)-4-piperidinyl}-3,4-dihydrocarbostyril] | 7.03
O=C(CNCc1ccccc1)NCCCCCOc1ccc(C(=O)N2CCC(N3C(=O)CCc4ccccc43)CC2)cc1 [Example 256, 1-{1-(4-[5-(2-Benzylaminoacetylamino)pentyloxy]benzoyl)-4-piperidinyl}-3,4-dihydrocarbostyril] | 6.72
NC(=O)CNC(=O)CCCCOc1ccc(C(=O)N2CCC(N3C(=O)CCc4ccccc43)CC2)cc1 [Example 4, 1-{1-[4-(4-Carbamoylmethylaminocarbonylbutoxy)benzoyl]-4-piperidinyl}-3,4-dihydrocarbostyril] | 6.62
CC(=O)N1CCN(CCCCOc2ccc(C(=O)N3CCC(N4C(=O)CCc5ccccc54)CC3)cc2)CC1 [Example 162, 1-{1-[4-[4-(4-Acetyl-1-piperazinyl)butoxy]benzoyl]-4-piperidinyl}-3,4-dihydrocarbostyril] | 6.96
CSCC[C@H](NC(=O)CCCCCOc1ccc(C(=O)N2CCC(N3C(=O)CCc4ccccc43)CC2)cc1)C(N)=O [Example 153, 1-{1-[4-(5-[1-(S)-Carbamoyl-3-(methylthio)]propylaminocarbonylpentyloxy)benzoyl]-4-piperidinyl}-3,4-dihydrocarbostyril] | 7.08
O=C(CCl)NCCCCOc1ccc(C(=O)N2CCC(N3C(=O)CCc4ccccc43)CC2)cc1 [Example 228, 1-{1-(4-[4-(2-Chloroacetylamino)butoxy]benzoyl)-4-piperidinyl)-3,4-dihydrocarbostyril] | 6.70

Same assay, conditions: [H]3-Arg-vasopressin 2×10^-10 M, rat liver plasma membrane, 37° C., 10 minutes, pH 8.0; read-out: IC50

pIC50 | SMILES
5.52 | COc1ccc(N(Cc2ccccc2)C(=O)c2ccc(N3C(=O)CCc4ccccc43)cc2)cc1 [Example 85]
